Like-named read-outs stand apart in the source and are kept apart here.
Legend:
[1] = assay type: physicochemical; conditions: for appearance of the metal parts of the chiller: over the lifetime of the test; for changes in the composition of the circulating fluid (NMR, GC/MS): circulated through closed stainless steel loop at 150° C. for 28 days; for breakdown product diketone (CF3)2CFCOC2F4COCF(CF3)2: other studies
Experimental: The long term stability of HC6F12CH2OCF2CFHCF3 in a commercial chiller unit was tested. The chiller used for this test was a Lydall Affinity Chiller, model PWL-003 KBE48CBC3 with an operating range of 10° C. to 200° C. HC6F12CH2OCF2CFHCF3 was circulated through a closed stainless steel loop at 150° C. for 28 days. During this time the chiller operated continuously except for short periods for taking samples in which the fluid was cooled to room temperature before the sample was removed. […] The composition of the circulating fluid was analyzed by GC/MS periodically (on days 1, 3, 6, 13, 20, and 28) to determine whether any changes in the fluid had occurred. Fluorine NMR analysis of the fluid before the testing and after completion of the testing was also carried out. […] A very small level of HF (1.4 ppm) was observed initially and this value decreased to 0 ppm by day 13. HF was also monitored in the liquid phase by titration and never exceeded a value of 0.52 ppm.
A comparative hydrofluoroether 2,3,3,4,4-pentafluoro-2,5-bis(perfluoropropan-2-yl)-5-ethoxytetrahydrofuran (II) was also tested multiple times in this same system under the same conditions. The composition of this fluid was monitored periodically over about thirty days for composition changes from the input material. […] HF was also monitored in the liquid phase by titration and ranged between 0.34 and 0.36 ppm. […] Depending on the study this corrosion varied between quite marked with the formation of black or greenish deposits to less obvious but still showing significant signs of a corrosive agent derived from the fluid. This corrosion as well as the formation of the diketone breakdown product rendered this material unacceptable for use in such a high temperature heat transfer application.
Furthermore, the heat transfer fluid that includes the hydrofluoroether compound from Example 1 was tested for long term stability in a commercial chiller unit as described in Example 3. […] As a comparison, the compound from Comparative Example 1 was put through the same test.

[2] = assay type: physicochemical; conditions: for stability of the HFE to temperature (conclusion from ketone concentration): heated at 150° C. for 8 days
Experimental: Stability testing was carried out by heating of the various samples in clean, PYREX glass round bottom flasks at the temperatures noted below.
The stability of H(CF2CF2)3CH2OCF2CFHCF3 was tested by placing a portion of the ether, prepared essentially as described in Example 1 and treated with both HF and potassium permanganate, (˜100 g) into a new PYREX glass flask containing a reflux condenser under nitrogen and heating to 150° C. for 36 days. Samples of the liquid were taken at 7, 14, 26 and 36 day time intervals and the composition was monitored by GC/MS for breakdown products of the parent molecule. […] The compositional analysis (GC/MS and GC-FID) verified this conclusion. After this heating period, the sample was then heated to 180° C. for an additional 14 days.
The stability of H(CF2CF2)3CH2OCF2CFHOCF3 was tested by placing a portion of the ether, prepared as described above, (75 g) into a flask containing a reflux condenser under nitrogen and heating while stirring magnetically to 175° C. for 15 days. Samples of the liquid were taken at 1, 2, 3, 4, 7, 8, 9, 11 and 15 day time intervals and analyzed by gas chromatography. In addition, the starting material and the material at the end of the heating period were analyzed by GC/MS for breakdown products of the parent molecule.
Stability testing in glass was carried out by placing about 100 g of the ether in a 500 ml, round bottom flask equipped with a water condenser and heated with magnetic stirring to 150° C. for seven days. Samples of the liquid were taken on days 1, 2, 3, 4, and 7 and analyzed by gas chromatography, HF gas probe, and pH paper. After one day, the pH had dropped from the initial value neutral value of 7 to 5 and remained at that level the remainder of the test.
(§1) 50 grams of the hydrofluoroether was charged to a 50 mL round bottom flask. The material was heated at 150° C. for 8 days with samples taken at day 1, 2, 3, 6, and 8. The primary breakdown product from the parent molecule that was monitored was the ketone intermediate, C3F7OCF(CF3)CF2OCF(CF3)C(O)CF2CF3. This was monitored using GC-FID.
as §1, with “5, 7,” for “3, 6,”
50 g of the hydrofluoroether was charged to a 50 mL round bottom flask. The material was heated at 150° C. for 7 days with samples taken at days 3, 5, and 7 days. The primary breakdown products from the parent molecule that were monitored was vinyl ether, C4F9OCF(CF3)CF2OCF═CF2 and the hydride C4F9OCF(CF3)CF2OCFHCF3. These were monitored using GC-FID.
50 g of the hydrofluoroether was charged to a 50 mL round bottom flask. […] The primary breakdown products from the parent molecule that were monitored was vinyl ether, C3F7(OCF(CF3)CF2)2OCF═CF2 and the hydride C3F7(OCF(CF3)CF2)2OCF═HCF3. These were monitored using GC-FID.

**Q.** What does the source list for FC(C(F)(F)F)C(F)(F)OCC(F)(F)C(F)(F)C(F)(F)C(F)(F)C(F)(F)C(F)F (centres unmarked) [Example 1, 7-(1,1,2,3,3,3-hexafluoropropoxy)-1,1,2,2,3,3,4,4,5,5,6,6-dodecafluoroheptane]?
**A.** HF level in head space of the chiller ([1]; 150° C., by day 13): 0 ppm; increase in HF levels in head space of the chiller (PortaSens HF gas detector probe) ([1]; 150° C., entire 28 day heating period): detected no increase in the HF levels; HF level in head space of the chiller ([1]; 150° C., observed initially): 1.4 ppm; HF in the liquid phase by titration ([1]; 150° C., over the chiller test (about 28-30 days)): ≤ 0.52 ppm; appearance of the metal parts of the chiller ([1]; 150° C.): essentially unchanged; changes in the composition of the circulating fluid (NMR, GC/MS) [1]: no significant deterioration; changes in the composition of the circulating fluid (NMR, GC/MS) ([1]; listed as HC6F12CH2OCF2CFHCF3): No changes in the composition of the fluid were observed; changes in product purity / breakdown products of the parent molecule (GC/MS, GC-FID) ([2]; PYREX glass flask, reflux condenser, under nitrogen, 150° C. for 36 days): No changes in product purity were observed; breakdown products ([2]; after 36 days at 150° C., heated to 180° C. for an additional 14 days): No breakdown products were observed; HF in head space of the flask (PortaSens HF gas detector probe) ([2]; entire 50 day heating period (150° C. 36 days, 180° C. 14 days)): detected no HF

**Q.** Which results are given for CCOC(F)(F)C(F)(OC(F)(F)C(F)(OC(F)(F)C(F)(F)C(F)(F)C(F)(F)F)C(F)(F)F)C(F)(F)F (centres unmarked) [Comparative Example 4, 1-(1-{[1-(ethoxydifluoromethyl)-1,2,2,2-tetrafluoroethoxy]-difluoromethyl}-1,2,2,2-tetrafluoroethoxy)-1,1,2,2,3,3,4,4,4-nonafluorobutane]?
**A.** % Breakdown products (sum of vinyl ether and hydride, GC-FID) ([2]; 150° C., Day 0): 0%; % Breakdown products (sum of vinyl ether and hydride, GC-FID) ([2]; 150° C., Day 3): 0.18%; % Breakdown products (sum of vinyl ether and hydride, GC-FID) ([2]; 150° C., Day 5): 0.32%; % Breakdown products (sum of vinyl ether and hydride, GC-FID) ([2]; 150° C., Day 7): 0.49%

**Q.** What does the source list for CCOC(F)(F)C(F)(OC(F)(F)C(F)(OC(F)(F)C(F)(OC(F)(F)C(F)(F)C(F)(F)F)C(F)(F)F)C(F)(F)F)C(F)(F)F (centres unmarked) [Comparative Example 5, 1-{1-[(1-{[1-(ethoxydifluoromethyl)-1,2,2,2-tetrafluoroethoxy]difluoro-methyl}-1,2,2,2-tetrafluoroethoxy)difluoromethyl]-1,2,2,2-tetrafluoroethoxy}-1,1,2,2,3,3,3-heptafluoro-propane]?
**A.** % Breakdown products (sum of vinyl ether and hydride, GC-FID) ([2]; 150° C., Day 0): 0%; % Breakdown products (sum of vinyl ether and hydride, GC-FID) ([2]; 150° C., Day 2.75): 0.18%; % Breakdown products (sum of vinyl ether and hydride, GC-FID) ([2]; 150° C., Day 4.75): 0.38%; % Breakdown products (sum of vinyl ether and hydride, GC-FID) ([2]; 150° C., Day 6.75): 0.45%; % Breakdown products (sum of vinyl ether and hydride, GC-FID) ([2]; 150° C., Day 9.75): 0.55%; % Breakdown products (sum of vinyl ether and hydride, GC-FID) ([2]; 150° C., Day 18.75): 1.59%

**Q.** Which “ppm Ketone (breakdown product C3F7OCF(CF3)CF2OCF(CF3)C(O)CF2CF3, GC-FID)” value (from here on “ppm Ketone”) ([2]; 150° C., Day 1) does the source give for COC(F)(C(F)(F)C(F)(F)F)C(F)(OC(F)(F)C(F)(OC(F)(F)C(F)(F)C(F)(F)F)C(F)(F)F)C(F)(F)F (centres unmarked) [Comparative Example 3, 3-methoxy-1,1,1,2,2,3,4,5,5,5-decafluoro-4-(1,1,2,3,3,3-hexafluoro-2-heptafluoropropyloxypropoxy)pentane] here?
**A.** 50 ppm

**Q.** And the “ppm Ketone” value ([2]; 150° C., Day 2)?
**A.** 50 ppm

**Q.** What about the “ppm Ketone” value ([2]; 150° C., Day 5) of the same compound?
**A.** 50 ppm

**Q.** And the “ppm Ketone” value ([2]; 150° C., Day 7)?
**A.** 50 ppm

**Q.** What about the “stability of the HFE to temperature (conclusion from ketone concentration)” value [2] of the same compound?
**A.** not exceptionally stable

**Q.** Which “changes in product purity (gas chromatography, GC/MS)” value ([2]; flask, reflux condenser, under nitrogen, 175° C. for 15 days) does the source give for FC(OC(F)(F)F)C(F)(F)OCC(F)(F)C(F)(F)C(F)(F)C(F)(F)C(F)(F)C(F)F (centres unmarked) [Example 2, 1,1,2,2,3,3,4,4,5,5,6,6-dodecafluoro-7-(1,1,2-trifluoro-2-trifluoromethoxyethoxy)heptane] here?
**A.** No changes in product purity were observed

**Q.** Which results are given for CCOC1(C(F)(C(F)(F)F)C(F)(F)F)OC(F)(C(F)(C(F)(F)F)C(F)(F)F)C(F)(F)C1(F)F (centres unmarked) [Comparative Example 1, 2,3,3,4,4-pentafluoro-2,5-bis(perfluoropropan-2-yl)-5-ethoxytetrahydrofuran]?
**A.** stability of the parent molecule (conclusion from diketone formation) [1]: not stable; breakdown product diketone (CF3)2CFCOC2F4COCF(CF3)2 ([1]; 150° C., at 7 days): 472 ppm; breakdown product diketone (CF3)2CFCOC2F4COCF(CF3)2 ([1]; 150° C., at 28 days): 195 ppm; appearance of the metal parts of the chiller ([1]; 150° C.): considerable corrosion; appearance of the metal parts of the chiller ([1]; 150° C., listed as II): noticeable corrosion; ppm F (HF levels in the liquid phase) ([2]; 150° C., Day 0): <0.1 ppm; ppm F (HF levels in the liquid phase) ([2]; 150° C., Day 1): 1.0 ppm; ppm F (HF levels in the liquid phase) ([2]; 150° C., Day 2): 1.8 ppm; ppm F (HF levels in the liquid phase) ([2]; 150° C., Day 3): 2.6 ppm; ppm F (HF levels in the liquid phase) ([2]; 150° C., Day 4): 3.2 ppm; ppm F (HF levels in the liquid phase) ([2]; 150° C., Day 7): 3.9 ppm; pH (pH paper) ([2]; 150° C., after one day, remained at that level the remainder of the test): 5; HF level in the headspace (PortaSens probe) ([2]; 150° C., day 3, maximum level which the probe could detect, did not change for remainder of test): 27 ppm; decomposition product diketone (CF3)2CFCOC2F4COCF(CF3)2 level ([2]; 150° C., day 7): 1648 ppm; pH (pH paper) ([2]; initial value, before heating): 7

**Q.** Which “ppm Ketone” value ([2]; 150° C., Day 1) does the source give for CCOC(F)(C(F)(F)C(F)(F)F)C(F)(OC(F)(F)C(F)(OC(F)(F)C(F)(F)C(F)(F)F)C(F)(F)F)C(F)(F)F (centres unmarked) [Comparative Example 2, 3-ethoxy-1,1,1,2,2,3,4,5,5,5-decafluoro-4-(1,1,2,3,3,3-hexafluoro-2-heptafluoropropyloxypropoxy)pentane] here?
**A.** 140 ppm

**Q.** What about the “ppm Ketone” value ([2]; 150° C., Day 2) of the same compound?
**A.** 300 ppm

**Q.** And the “ppm Ketone” value ([2]; 150° C., Day 3)?
**A.** 503 ppm

**Q.** And the “ppm Ketone” value ([2]; 150° C., Day 6)?
**A.** 1000 ppm

**Q.** And the “ppm Ketone” value ([2]; 150° C., Day 8)?
**A.** 1200 ppm

**Q.** And the “stability of the HFE to temperature (conclusion from ketone concentration)” value [2]?
**A.** not exceptionally stable

Reference: patent US8591761B2, “Apparatus including hydrofluoroether with high temperature stability and uses thereof” (3M Innovative Properties Company, priority 2009, dated 2013)
